Results as given in ChEMBL document CHEMBL5724914, “Linking interpersonal differences in gut microbiota composition and drug biotransformation activity” (2024).

Legend:
[1] = The drug is tested on WLS-006 corresponding to human gut metagenome with ENA study accession number: PRJEB37062 and ENA sample accession number: ERS12561741 for biotransformation under anaerobic condition. The drug concentrations were measured over 9 timepoints collected between 0 and 24 hours of incubation by liquid-chromatography-coupled mass spectrometry (LC–MS); conditions: 2 µM
[2] = The drug is tested on Z-030 corresponding to mouse gut metagenome with ENA study accession number: PRJEB37062 and ENA sample accession number: ERS12561829 for biotransformation under anaerobic condition. The drug concentrations were measured over 9 timepoints collected between 0 and 24 hours of incubation by liquid-chromatography-coupled mass spectrometry (LC–MS); conditions: 2 µM
[3] = human gut metagenome, 24 h, 2 µM
[4] = The drug is tested on Z-014 corresponding to rat gut metagenome with ENA study accession number: PRJEB37062 and ENA sample accession number: ERS12561814 for biotransformation under anaerobic condition. The drug concentrations were measured over 9 timepoints collected between 0 and 24 hours of incubation by liquid-chromatography-coupled mass spectrometry (LC–MS); conditions: 2 µM
[5] = human gut metagenome, 24 h, 2 µM; remark: listed apart in the source
[6] = The drug is tested on Z-022 corresponding to mouse gut metagenome with ENA study accession number: PRJEB37062 and ENA sample accession number: ERS12561821 for biotransformation under anaerobic condition. The drug concentrations were measured over 9 timepoints collected between 0 and 24 hours of incubation by liquid-chromatography-coupled mass spectrometry (LC–MS); conditions: 2 µM
[7] = The drug is tested on WLS-370 corresponding to human gut metagenome with ENA study accession number: PRJEB37062 and ENA sample accession number: ERS12561793 for biotransformation under anaerobic condition. The drug concentrations were measured over 9 timepoints collected between 0 and 24 hours of incubation by liquid-chromatography-coupled mass spectrometry (LC–MS); conditions: 2 µM
[8] = human gut metagenome, 24 h, 2 µM; remark: listed apart in the source
[9] = The drug is tested on WLS-310 corresponding to human gut metagenome with ENA study accession number: PRJEB37062 and ENA sample accession number: ERS12561785 for biotransformation under anaerobic condition. The drug concentrations were measured over 9 timepoints collected between 0 and 24 hours of incubation by liquid-chromatography-coupled mass spectrometry (LC–MS); conditions: 2 µM
Also: call rule not given here.

Structure (SMILES) | Bacterial Biotransformation [1] | Bacterial Biotransformation [2] | Bacterial Biotransformation [3] | Bacterial Biotransformation [4] | Bacterial Biotransformation [5] | Bacterial Biotransformation [6] | Bacterial Biotransformation [7] | Bacterial Biotransformation [8] | Bacterial Biotransformation [9]
CN(C)CCC=C1c2ccccc2COc2ccccc21 [DOXEPIN] | Compound NOT metabolized | Compound NOT metabolized | Compound metabolized | Compound NOT metabolized | Compound NOT metabolized | Compound NOT metabolized | Compound metabolized | Compound NOT metabolized | Compound metabolized
C[C@]12CCC(=O)C=C1[C@@H]1C[C@@H]1[C@H]1[C@@H]3[C@@H]4C[C@@H]4[C@@]4(CCC(=O)O4)[C@@]3(C)CC[C@@H]12 [DROSPIRENONE] | Compound metabolized | Compound NOT metabolized | Compound metabolized | Compound NOT metabolized | Compound metabolized | Compound NOT metabolized | Compound metabolized | Compound metabolized | Compound metabolized
C#C[C@]1(OC(C)=O)CC[C@H]2[C@@H]3CCC4=C[C@@H](OC(C)=O)CC[C@@H]4[C@H]3CC[C@@]21C [ETHYNODIOL DIACETATE] | Compound metabolized | Compound metabolized | Compound metabolized | Compound metabolized | Compound metabolized | Compound metabolized | Compound metabolized | Compound metabolized | Compound metabolized
CC(C)c1c(CN(C)C(C)Cc2ccccc2)n(C)n(-c2ccccc2)c1=O (centres undefined) [FAMPROFAZONE] | Compound metabolized | Compound NOT metabolized | Compound metabolized | Compound metabolized | Compound metabolized | Compound metabolized | Compound metabolized | Compound metabolized | Compound metabolized
N=C(N)NC(=O)Cc1c(Cl)cccc1Cl [GUANFACINE] | Compound NOT metabolized | Compound NOT metabolized | Compound NOT metabolized | Compound NOT metabolized | Compound NOT metabolized | Compound NOT metabolized | Compound NOT metabolized | Compound NOT metabolized | Compound NOT metabolized
Nc1nc(N)nc(-c2cc(Cl)ccc2Cl)n1.O=C(O)/C=C\C(=O)O [IRSOGLADINE MALEATE] | Compound NOT metabolized | Compound NOT metabolized | Compound NOT metabolized | Compound NOT metabolized | Compound NOT metabolized | Compound NOT metabolized | Compound NOT metabolized | Compound NOT metabolized | Compound NOT metabolized
CN1CCC(=C2c3ccccc3CC(=O)c3sccc32)CC1.O=C(O)/C=C/C(=O)O [KETOTIFEN FUMARATE] | Compound metabolized | Compound NOT metabolized | Compound metabolized | Compound NOT metabolized | Compound NOT metabolized | Compound NOT metabolized | Compound metabolized | Compound NOT metabolized | Compound metabolized
CC[C@H](C)C(=O)O[C@H]1CCC=C2C=C[C@H](C)[C@H](CC[C@@H]3C[C@@H](O)CC(=O)O3)[C@H]21 [MEVASTATIN] | Compound metabolized | Compound metabolized | Compound metabolized | Compound NOT metabolized | Compound metabolized | Compound metabolized | Compound NOT metabolized | Compound metabolized | Compound metabolized
COc1ccc2cc([C@H](C)C(=O)O)ccc2c1 [NAPROXEN] | Compound metabolized | Compound NOT metabolized | Compound metabolized | Compound NOT metabolized | Compound NOT metabolized | Compound NOT metabolized | Compound NOT metabolized | Compound NOT metabolized | Compound metabolized
C#C[C@]1(OC(C)=O)CC[C@H]2[C@@H]3CCC4=C/C(=N/O)CC[C@@H]4[C@H]3CC[C@@]21CC [NORGESTIMATE] | Compound metabolized | Compound metabolized | Compound metabolized | Compound NOT metabolized | Compound NOT metabolized | Compound NOT metabolized | Compound NOT metabolized | Compound NOT metabolized | Compound metabolized
COc1ccnc(C[S+]([O-])c2nc3ccc(OC(F)F)cc3[nH]2)c1OC (centres undefined) [PANTOPRAZOLE] | Compound metabolized | Compound metabolized | Compound metabolized | Compound NOT metabolized | Compound metabolized | Compound metabolized | Compound metabolized | Compound metabolized | Compound metabolized
